{"source": "patent US5624812A", "about": "“Method for measuring carbon dioxide and reagent therefor” (Toyo Boseki Kabushiki Kaisha, priority 1993, dated 1997)", "molecules": {"B1": {"name": "phosphoenolpyruvate carboxylase yielded by Acetobacter hansenii IFO 14820 (ATCC 35959) (Novacetimonas hansenii) (protein)", "chain": "MSQASAPHATDMLQQQARELVAIPALSDNPVMTLARSIGQQIDRGSLSTDALEAWVRRLRDAAFARRACHIAAYVGGVDDAVIDQRMRDVARRIMQPDPNDSPVPIARFRAATERSRFAAVFTAHPTFALASPVYDCLADMATQNPQQPPTDVPAFITHRRAAPPTLDEEFTLATQAILRGRNALDRLTRVLLTEARAHWPQLWATLAPRPIIMTSWVGYDTDGRTDIGWWDTLRLRLRMKHMQLTRLNAQIGPVASVPNDLHERVNRAIQAVEAQIAACPGSADPQAVADFAAVLIGRREEAMTSSNDLAPTFAEAIDAATLDDKMTLAVARAGFMAHGLSAAHTHVRLNSTQLHNVARQRLGITDNPDIHAQRRALIARIDEALDTTQPIDIDFGSLLVEQSTAGRLMMTVRQILHHIDRTTPIRFLIAETETGYTLLTALWLARLLGVEDMIEISPLFETQDALEQGEHLIEEALHSPHWRAYLHRTRKLSLQFGFSDSGRYVGQLAATYLIERLRLKVCDLLRQWDLAFVEVILFDTHGESIGRGAHPYSLAERFDYLSPPHARMRFLQAGIRLREETAFQGGDGYLLFGTQPLADATVSVIAEHAFATTSIDEDPVYDEPDFSADFFSAIARGMTGLVEDPGYAALLGAFGPSLIDKTGSRPSARQSDTAAITTRIRHPSQLRAIPNNAILQQLGWCANTLQGLGTAAARHPDTFERYLNDSPRFRRALDFAAHGLAHSSDGVLRGVIRLLDPDMWLQRATAHHDPKRQDACLTLMHGLERLDFWACTQSMFRRLQSDHLALRNAWPSAPRMEADEMLLHAIRIAIIEQIWMLSTRIPYFAPRNAFTRDVLTAKVLCLEIPDVLKELEHIFPYHADRSFDLDFHEPHGPRDEGTYMREYTEIFEPMQRLFTLVREISTGVMHHVGAFG"}}, "key": {"[1]": {"target": "T1, phosphoenolpyruvate carboxylase yielded by Acetobacter hansenii IFO 14820 (ATCC 35959) (Novacetimonas hansenii, UniProt A0ABQ0SBC7)", "T1 sequence (A0ABQ0SBC7 1-933)": "B1 chain", "protocol": "A reaction mixture (2.9 ml) containing 50 mM Tris-HCl, 10 mM Na2 CO3, 3.2 mM phosphoenolpyruvic acid, 100 mM MgSO4, 0.14 mM NADH and 50 U/ml malate dehydrogenase is prepared in a cuvette (d=1 cm) and preheated at 30° C. for about 5 minutes. An enzyme solution (0.1 ml) is added thereto and the mixture is gently stirred. A change in absorbance at 340 nm is recorded for 2-3 minutes with a spectrophotometer using water adjusted to 30° C. as a control, and change in absorbance per minute is calculated from the initial linear portion thereof (ΔOD test). A blank test is performed by using 50 mM phosphate buffer (pH 7.0) in place of the enzyme solution and following the steps to determine changes in absorbance per minute (ΔOD blank)."}, "[2]": {"substrate": "C=C(OP(=O)(O)O)C(=O)O", "experiment": "purified protein, by the assay type", "details": "pH 7.0; 30.0 °C"}}}
{"molecule": "Nc1ncnc2c1ncn2[C@@H]1O[C@H](COP(=O)(O)OP(=O)(O)O)[C@@H](O)[C@H]1O", "note": "[ADP]", "values": [{"measurement": "Inhibition by ADP", "setting": "[1]", "value": "Not inhibited"}]}
{"molecule": "CC(=O)SCCNC(=O)CCNC(=O)[C@H](O)C(C)(C)COP(=O)(O)OP(=O)(O)OC[C@H]1O[C@@H](n2cnc3c(N)ncnc32)[C@H](O)[C@@H]1OP(=O)(O)O", "note": "[acetyl CoA]", "values": [{"measurement": "Activation by acetyl CoA", "setting": "[1]", "value": "Not activated"}]}
{"molecule": "B1", "values": [{"measurement": "Km", "setting": "[2]", "value": 210, "unit": "µM"}]}
